This is an account of results in patent publication US20120309750A1, “5-MEMBERED HETEROCYCLE DERIVATIVES AND MANUFACTURING PROCESS THEREOF” (ILDONG PHARM CO., LTD., priority 2010, published 2012).

The subject of assay [1] is human colorectal cancer cells (HCT116). Put plainly: Growth inhibition assay (cytotoxicity) in HCT116. The class given is cell-based. The settings on record: HCT-116. As for the experimental part:
(§1) For present invention, the ATPase activity of yeast HSP90 was measured using malachite green assay. Formula I compounds for primary antitumoral activity were treated in human colorectal cancer cells (HCT116) showing increased expression levels of HSP90 client protein and cotoxicity IC50 values was measured as a result.

The target in another assay is yeast HSP90 (Saccharomyces cerevisiae, UniProt P02829). Put plainly: Hsp90 ATPase assay (malachite green). The class given is biochemical. The method, then: as §1
Chain of yeast HSP90 (P02829 whole entry): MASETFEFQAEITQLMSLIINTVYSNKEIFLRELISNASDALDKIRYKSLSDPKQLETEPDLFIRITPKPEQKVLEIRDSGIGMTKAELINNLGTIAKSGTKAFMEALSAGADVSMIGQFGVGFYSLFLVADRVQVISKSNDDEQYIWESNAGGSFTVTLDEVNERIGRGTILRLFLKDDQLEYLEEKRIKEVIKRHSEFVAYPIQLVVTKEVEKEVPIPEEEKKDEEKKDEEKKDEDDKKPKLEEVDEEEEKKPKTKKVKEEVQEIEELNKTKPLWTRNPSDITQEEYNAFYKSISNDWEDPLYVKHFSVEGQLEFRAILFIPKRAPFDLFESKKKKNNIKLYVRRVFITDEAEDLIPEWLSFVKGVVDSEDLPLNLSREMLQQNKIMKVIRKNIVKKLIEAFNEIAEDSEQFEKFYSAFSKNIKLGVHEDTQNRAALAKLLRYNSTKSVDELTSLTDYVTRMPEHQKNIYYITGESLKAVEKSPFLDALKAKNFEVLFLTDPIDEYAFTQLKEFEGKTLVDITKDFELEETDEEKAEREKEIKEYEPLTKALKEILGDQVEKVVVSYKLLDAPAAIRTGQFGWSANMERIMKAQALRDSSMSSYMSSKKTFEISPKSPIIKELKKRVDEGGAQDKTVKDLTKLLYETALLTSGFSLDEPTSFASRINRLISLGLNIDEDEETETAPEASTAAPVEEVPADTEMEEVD

A word on the IC50: it is the concentration needed to halve the response being measured. Turning to `CCNC(=O)c1noc(-c2cc(C(C)C)c(O)cc2O)c1C1CC(C(=O)OCC)=NO1` (stereo not drawn) [Compound I-7, Ethyl 5-(5-(2,4-dihydroxy-5-isopropylphenyl)-3-(ethylcarbamoyl)isoxazol-4-yl)-4,5-dihydroisoxazole-3-carboxylate], the IC50 (in assay [1]; against yeast HSP90) was 500 to 1000 nM in each case.
Consider `CCNC(=O)c1noc(-c2cc(C(C)C)c(O)cc2O)c1-c1cc(-c2ccccc2)no1` [Compound I-49, 5-(2,4-Dihydroxy-5-isopropylphenyl)-N-ethyl-3′-phenyl-4,5′-biisoxazole-3-carboxamide], for which the concentration for half-maximal inhibition (IC50) (in assay [1]; at yeast HSP90) was 500 to 1000 nM each time.
`CCNC(=O)c1noc(-c2cc(C(C)C)c(O)cc2O)c1-c1cc(CN(C)C)no1` [Compound I-41, 5-(2,4-Dihydroxy-5-isopropylphenyl)-3′-((dimethylamino)methyl)-N-ethyl-4,5′-biisoxazole-3-carboxamide]: the IC50 (in assay [1]; on yeast HSP90) was less than 500 nM each time.
As to `CCNC(=O)c1noc(-c2cc(C(C)C)c(O)cc2O)c1-c1cnn(CC)c1` [Compound I-104, 5-(2,4-Dihydroxy-5-isopropylphenyl)-N-ethyl-4-(1-ethyl-1H-pyrazol-4-yl)isoxazole-3-carboxamide], the results for the IC50 (in assay [1]; against yeast HSP90) were less than 500 nM and 500 to 1000 nM, respectively.
Taken in the same sequence, the figures for `CCNC(=O)c1noc(-c2cc(C(C)C)c(O)cc2O)c1-c1ccn(CC)n1` [Compound I-99, 5-(2,4-Dihydroxy-5-isopropylphenyl)-N-ethyl-4-(1-ethyl-1H-pyrazol-3-yl)isoxazole-3-carboxamide] were less than 500 nM and 500 to 1000 nM.
Taken in the same sequence, the figures for `CCNC(=O)c1noc(-c2cc(C(C)C)c(O)cc2O)c1-c1noc(-c2ccc(OCC)cc2)n1` [Compound I-90, 5-(2,4-Dihydroxy-5-isopropylphenyl)-4-(5-(4-ethoxyphenyl)-1,2,4-oxadiazol-3-yl)-N-ethylisoxazole-3-carboxamide] were greater than 1000 nM and 500 to 1000 nM.
Taken in the same sequence, the figures for `CC(C)c1cc(-c2onc(Cn3ccnn3)c2-c2ccsc2)c(O)cc1O` [Compound I-5, 4-(3-((1H-1,2,3-Triazol-1-yl)methyl)-4-(thiophen-3-yl)isoxazol-5-yl)-6-isopro pylbenzene-1,3-diol] were less than 500 nM and greater than 1000 nM.
Regarding `CCNC(=O)c1noc(-c2cc(C(C)C)c(O)cc2O)c1-c1nnn[nH]1` [Compound I-10, 5-(2,4-Dihydroxy-5-isopropylphenyl)-N-ethyl-4-(1H-tetrazol-5-yl)isoxazole-3-carboxamide], the figures for the half-maximal inhibitory concentration (IC50) (in assay [1]; against yeast HSP90) were greater than 1000 nM and 500 to 1000 nM, respectively.
Take `CCNC(=O)c1noc(-c2cc(C(C)C)c(O)cc2O)c1-c1noc(COC)n1` [Compound I-75, 5-(2,4-Dihydroxy-5-isopropylphenyl)-N-ethyl-4-(5-(methoxymethyl)-1,2,4-oxadiazol-3-yl)isoxazole-3-carboxamide]: the half-inhibitory concentration (IC50) (in assay [1]; at yeast HSP90) was less than 500 nM throughout.
Turning to `CCNC(=O)c1noc(-c2cc(C(C)C)c(O)cc2O)c1-c1noc(C(F)(F)F)n1` [Compound I-57, 5-(2,4-Dihydroxy-5-isopropylphenyl)-N-ethyl-4-(5-(trifluoromethyl)-1,2,4-oxadiazol-3-yl)isoxazole-3-carboxamide], the concentration for half-maximal inhibition (IC50) was less than 500 nM in assay [1] and 500 to 1000 nM against yeast HSP90.
In the same order, the values of `CCC(=O)NCc1noc(-c2cc(C(C)C)c(O)cc2O)c1-c1ccsc1` [Compound I-4, N-((5-(2,4-Dihydroxy-5-isopropylphenyl)-4-(thiophen-3-yl)isoxazol-3-yl)methyl)propionamide] are greater than 1000 nM and greater than 1000 nM.
Taken in the same sequence, the figures for `CCNC(=O)c1noc(-c2cc(C(C)C)c(O)cc2O)c1-c1cc(CNC(=O)CC)no1` [Compound I-34, 5-(2,4-Dihydroxy-5-isopropylphenyl)-N-ethyl-3′-(propionamidomethyl)-4,5′-biisoxazole-3-carboxamide] were less than 500 nM and less than 500 nM.
Turning to `CCNC(=O)c1noc(-c2cc(C(C)C)c(O)cc2O)c1-c1noc(S)n1` [Compound I-82, 5-(2,4-Dihydroxy-5-isopropylphenyl)-N-ethyl-4-(5-mercapto-1,2,4-oxadiazol-3-yl)isoxazole-3-carboxamide], the IC50 (in assay [1]; at yeast HSP90) was 500 to 1000 nM each time.
For `CCNC(=O)c1noc(-c2cc(C(C)C)c(O)cc2O)c1-c1noc(C(C)C)n1` [Compound I-65, 5-(2,4-Dihydroxy-5-isopropylphenyl)-N-ethyl-4-(5-isopropyl-1,2,4-oxadiazol-3-yl)isoxazole-3-carboxamide], the IC50 (in assay [1]; against yeast HSP90) was less than 500 nM in each case.
`CCNC(=O)c1noc(-c2cc(C(C)C)c(O)cc2O)c1-c1noc(N2CCOCC2)n1` [Compound I-73, 5-(2,4-Dihydroxy-5-isopropylphenyl)-N-ethyl-4-(5-morpholino-1,2,4-oxadiazol-3-yl)isoxazole-3-carboxamide]: the concentration for half-maximal inhibition (IC50) is less than 500 nM in assay [1] and 500 to 1000 nM against yeast HSP90.
Consider `CCNC(=O)c1noc(-c2cc(C(C)C)c(O)cc2O)c1-c1cc(C(=O)N2CCSCC2)no1` [Compound I-50, 5-(2,4-Dihydroxy-5-isopropylphenyl)-N-ethyl-3′-(thiomorpholine-4-carbonyl)-4,5′-biisoxazole-3-carboxamide], for which the IC50 in assay [1] was less than 500 nM; on yeast HSP90, 500 to 1000 nM.
Taken in the same sequence, the figures for `CCNC(=O)c1noc(-c2cc(C(C)C)c(O)cc2O)c1-c1cc(CN2CCCC2)no1` [Compound I-39, 5-(2,4-Dihydroxy-5-isopropylphenyl)-N-ethyl-3′-(pyrrolidin-1-ylmethyl)-4,5′-biisoxazole-3-carboxamide] were less than 500 nM and 500 to 1000 nM.
In the same order, the values of `CCNC(=O)c1noc(-c2cc(C(C)C)c(O)cc2O)c1C1CC(CO)=NO1` (stereo not drawn) [Compound I-9, 5-(2,4-Dihydroxy-5-isopropylphenyl)-N-ethyl-4-(3-(hydroxymethyl)-4,5-dihydroisoxazol-5-yl)isoxazole-3-carboxamide] are less than 500 nM and 500 to 1000 nM.
Taken in the same sequence, the figures for `CCNC(=O)c1noc(-c2cc(C(C)C)c(O)cc2O)c1-c1cc(CN(CC)CC)no1` [Compound I-20, 3′-((Diethylamino)methyl)-5-(2,4-dihydroxy-5-isopropylphenyl)-N-ethyl-4,5′-biisoxazole-3-carboxamide] were less than 500 nM and less than 500 nM.
`CCNC(=O)c1noc(-c2cc(C(C)C)c(O)cc2O)c1-c1noc(CC)n1` [Compound I-62, 5-(2,4-Dihydroxy-5-isopropylphenyl)-N-ethyl-4-(5-ethyl-1,2,4-oxadiazol-3-yl)isoxazole-3-carboxamide]: the IC50 (in assay [1]; at yeast HSP90) was less than 500 nM in each case.
Take `CCNC(=O)c1noc(-c2cc(C(C)C)c(O)cc2O)c1-c1cnn(C)c1` [Compound I-102, 5-(2,4-Dihydroxy-5-isopropylphenyl)-N-ethyl-4-(1-methyl-1H-pyrazol-4-yl)isoxazole-3-carboxamide]: the concentration for half-maximal inhibition (IC50) (in assay [1]; against yeast HSP90) was less than 500 nM each time.
As for `CC(C)c1cc(-c2onc(CO)c2-c2ccsc2)c(O)cc1O` [Compound I-3, 4-(3-(Hydroxymethyl)-4-(thiophen-3-yl)isoxazol-5-yl)-6-isopropylbenzene-1,3-diol], the IC50 (in assay [1]; at yeast HSP90) was greater than 1000 nM throughout.
Consider `CCNC(=O)c1noc(-c2cc(C(C)C)c(O)cc2O)c1-c1noc(N(CC)CC)n1` [Compound I-76, 4-(5-(Diethylamino)-1,2,4-oxadiazol-3-yl)-5-(2,4-dihydroxy-5-isopropylphenyl)-N-ethylisoxazole-3-carboxamide], for which the IC50 (in assay [1]; against yeast HSP90) was less than 500 nM throughout.
In the case of `CCNC(=O)c1noc(-c2cc(C(C)C)c(O)cc2O)c1-c1cc(C(N)=O)no1` [Compound I-21, 5-(2,4-Dihydroxy-5-isopropylphenyl)-N^3-ethyl-4,5′-biisoxazole-3,3′-dicarboxamide], the IC50 in assay [1] was less than 500 nM; at yeast HSP90, 500 to 1000 nM.
Turning to `CCNC(=O)c1cc(-c2c(C(=O)NCC)noc2-c2cc(C(C)C)c(O)cc2O)on1` [Compound I-16, 5-(2,4-Dihydroxy-5-isopropylphenyl)-N^3,N^3′-diethyl-4,5′-biisoxazole-3,3′-dicarboxamide], the IC50 (in assay [1]; at yeast HSP90) was less than 500 nM each time.
`CCNC(=O)c1nc(-c2c(C(=O)NCC)noc2-c2cc(C(C)C)c(O)cc2O)no1` [Compound I-59, 3-(5-(2,4-Dihydroxy-5-isopropylphenyl)-3-(ethylcarbamoyl)isoxazol-4-yl)-N-ethyl-1,2,4-oxadiazole-5-carboxamide]: the concentration for half-maximal inhibition (IC50) in assay [1] is less than 500 nM; at yeast HSP90, 500 to 1000 nM.
Taken in the same sequence, the figures for `CCCn1ccc(-c2c(C(=O)NCC)noc2-c2cc(C(C)C)c(O)cc2O)n1` [Compound I-101, 5-(2,4-Dihydroxy-5-isopropylphenyl)-N-ethyl-4-(1-propyl-1H-pyrazol-3-yl)isoxazole-3-carboxamide] were less than 500 nM and 500 to 1000 nM.
In the same order, the values of `CCNC(=O)c1noc(-c2cc(C(C)C)c(O)cc2O)c1-c1ccn(C)n1` [Compound I-97, 5-(2,4-Dihydroxy-5-isopropylphenyl)-N-ethyl-4-(1-methyl-1H-pyrazol-3-yl)isoxazole-3-carboxamide] are less than 500 nM and 500 to 1000 nM.
Turning to `CCNC(=O)c1noc(-c2cc(C(C)C)c(O)cc2O)c1-c1noc(-c2cccs2)n1` [Compound I-77, 5-(2,4-Dihydroxy-5-isopropylphenyl)-N-ethyl-4-(5-(thiophen-2-yl)-1,2,4-oxadiazol-3-yl)isoxazole-3-carboxamide], the concentration for half-maximal inhibition (IC50) was less than 500 nM in assay [1] and 500 to 1000 nM on yeast HSP90.
Taken in the same sequence, the figures for `CCNC(=O)c1noc(-c2cc(C(C)C)c(O)cc2O)c1-c1noc(C(=O)N(CC)CC)n1` [Compound I-74, 3-(5-(2,4-Dihydroxy-5-isopropylphenyl)-3-(ethylcarbamoyl)isoxazol-4-yl)-N,N-diethyl-1,2,4-oxadiazole-5-carboxamide] were 500 to 1000 nM and 500 to 1000 nM.
